Experimental data: patent publication US6767890B1, “Peptides having anti-cancer and anti-inflammatory activity” (priority 1998, dated 2004)
pIC50, pKi: −log10 of the molar value. Values joined by “and” are separate entries in the source; they are usually repeats but may differ in a detail not shown here. Equal values may be shown once.

Columns and labels:
[1] = tested on: oxazolone-induced ear swelling; assay: Immune Suppression, Cellular (oxazolone ear thickness); type: in vivo, mouse; conditions: IP, Peptide 100 mg/kg × 5, Cyclophosphamide 30 mg/kg × 5
Protocol: (§1) For in vivo assay, distilled water and saline was used as vehicle in oral and intraperitoneal administration, respectively. Dosing volume was 20 ml/kg for mice or 10 ml/kg for rats.
Groups of 5 ICR derived male mice weighing 22±1 gms were used. The preshaved abdominal surface was sensitized by application of oxazolone 0.1 ml of 5% solution. […] After additional four days, the animals were challenged by secondary application of oxazolone (0.025 ml of 5% solution) to the right ear. After a further 24 hours, each mouse was sacrificed and ear thickness measured with a Dyer Model micrometer gauge. A 30 percent or more (≧30%) decrease relative to the vehicle control group was considered significant and indicated possible immunosuppressant activity.

Sarcoma 180 tumor = assay: Anti-Cancer Activity Against Mouse Tumor Sarcoma 180; type: in vivo; conditions: 10 mg/kg
Protocol: This model has been used extensively as indicative of neovascularization in mammals inasmuch as the tumor so implanted is quickly vascularizing.
Experimental Design: All mice were weighed at test initiation and test termination. The animals were divided into three groups. The Sarcoma 180 tumor was made up from a passage mouse to furnish […] per 0.1 mL inoculum. The cells were injected into the left leg hamstring muscle mass. The was delivered to the mice by I.P. injections, or gavage on days 1-5.
At the termination of the experiments, the mice were weighed and the left rear leg was amputated at the thigh. The skin was removed from the leg to expose the site at which the tumor was located. […].

[2] = tested on: ovalbumin-induced bronchoconstriction; assay: Pulmonary, Histamine H3 (ovalbumin-induced bronchoconstriction); type: in vivo, guinea pig; conditions: Peptide PO 10 mg/kg, R-α-methylhistamine IV 30 mg/kg
Protocol: as §1
A group of Duncan Hartley derived male or female guinea pigs weighing 250±50 gms were anesthetized with pentobarbital sodium (50 mg/kg IP plus an additional 15 mg/kg IP if required) and succinylcholine chloride (2 mg/animal IP) was subsequently administered to prevent spontaneous respiration. Body temperature was maintained at 37° to 38° C. The trachea was cannulated and the guinea pig ventilated with a Harvard rodent respirator in a closed system. Tracheal pressure (TP) was recorded through a side-arm of the cannula connected to a P23ID Statham transducer. Respiratory rate set at 50 strokes/minute with a stroke volume (approximately 1 ml/100 g) sufficient to produce a baseline tracheal pressure of 6 cm H2O. Mean arterial pressure was monitored from a cannulated carotid artery, and heart rate was obtained from chest electrodes arranged for lead II. The jugular vein was cannulated for IV vehicle or drug administration in a volume of 1 ml/kg. Guinea pigs were sensitized with IP injections of ovalbumin 0.5 μg+Al(OH)3 1 mg (0.5 ml/animal) on days 1, and boosted with same dosage of ovalbumin and Al(OH)3 vaccine on day 8; and the animals were ready to be challenged between days 19 and 23 to get a submaximal ovalbumin (50 μg/kg IV)-induced bronchoconstriction, reflected as an increase in tracheal pressure (cm H2O). […]. Test substances were administered PO (10 mg/kg) at 60 minutes before ovalbumin (50 μg/kg IV) challenge in 3 guinea pigs. Tracheal pressure, blood pressure and heart rate were measured immediately before and after ovalbumin challenge.

histamine H3 receptor = molecular target: T1, histamine H3 receptor (Cavia porcellus, UniProt Q9JI35); assay: Histamine H3 Agonism/Antagonism, guinea pig ileum; type: cell-based; conditions: Peptide 30 μM, Thioperamide 0.3 μM; for Agonism, Ave.: R(α)-Methylhistamine 0.3 μM; for Agonism: relaxation within 5 minutes relative to 0.3 μM R-α-methylhistamine, R(α)-Methylhistamine 0.3 μM (0.1 printed in r13)
T1 construct: ileum obtained from Duncan Hartley derived male or female guinea pigs; from tissue; host or cells: guinea pig ileum segment, field-stimulated
Protocol: A segment of ileum obtained from Duncan Hartley derived male or female guinea pigs weighing 325±25 gms and sacrificed by CO2 overexposure were used. The tissue was placed under 0.5 g tension in a 10 ml bath containing Kreb's solution pH 7.4 and pyrilamine (0.3 μM) at 32° C. and subjected to field stimulation (70% of maximum voltage, 0.1 Hz, 0.5 millisecond). Test substance (30 μM)-induced reduction of isometrically recorded contractions 50 percent or more (≧50%) within 5 minutes, relative to control 0.3 μM R-α-methylhistamine response, indicated possible histamine H3 receptor agonist activity. At a test substance concentration where no significant agonist activity was seen, ability to inhibit R-α-methylhistamine-induced response by 50 percent or more (≧50%) indicated histamine H3 receptor antagonist activity. Each concentration was tested on two separate preparations.

PAF-induced mortality = assay: Platelet Activating Factor (PAF) Antagonism; type: in vivo, mouse; conditions: Peptide 100 mg/kg, WEB-2086 3 mg/kg
Protocol: as §1
Groups of 5 male ICR mice weighing 22±2 gms were employed. At dose of 100 mg/kg test substance dissolved in a vehicle of distilled water were administered orally. The control group received vehicle alone. At 60 minutes after dosing, the animals were injected intravenously PAF-acether ([…] IV, dissolved in 0.25% BSA). One hour later, the survival animals were recorded. The prevention of PAF-induced mortality in 50 percent or more (≧50%) of mice indicated significant activity.

[3] = tested on: Adjuvant Induced Arthritis; assay: Adjuvant Induced Arthritis Model; type: in vivo; conditions: rat, 20 mg per KG body weight orally once per day for 14 days, Day 14
Protocol: Adjuvant Induced Arthritis Model: Male Sprague-Dawley rats (160-180 g) were sensitized by injecting Fruend's Complete Adjuvant (0.5% suspension of killed mycobacterium tuberculosis (H37RA, Difco in mineral oil)). 0.05 ml was administered intradermally at a plantar site on the right hind leg of each rat. The test materials were given orally (by gavage) in 0.5% methylcelluose, at a dose level of 20 milligrams per kilo body weight, and given once per day for 14 days. The administration was started the day after sensitization. The left hind paw was measured just before sensitization and on Day 14, and the plantar edema inhibitory rate and the body weight gain rate were determined in comparison with the nonsensitized rat groups. The paw weights for each group in each test run were averaged. Activity was calculated as follows: [formula]
The Anti-inflammatory response is the difference in the mean foot volume. […] FIG. 4.

Histamine H3 = molecular target: T2, Histamine H3 (Rattus norvegicus, UniProt Q9QYN8); assay: Histamine H3 radioligand binding; conditions: historical value
T2 construct: rat brain; from tissue; host or cells: rat brain
Protocol: The peptide was further screened in vitro in a variety of enzyme and biochemical assays. Methods employed were adapted from the scientific literature to maximize reliability and reproducibility. The primary literature reference for each assay is listed in Table 11 opposite the results for each assay.
Results presented in Table 10, “Results,” are the average of duplicate determinations, unless otherwise noted.
Reference compounds were tested concurrently at 5 concentrations as an integral part of each assay to ensure the validity of the results obtained.
Radioligand binding assays were performed under conditions described in Table 8, “Experimental Conditions.” Radioligands employed in this study are given in Table 8, and commercial sources and catalog numbers of the radioligands are provided in Table 7, “Material Sources.” Unlabeled, blocking ligands employed this study are listed in Table 8, “Experimenal Conditions,” along with the commercial sources and catalog number of the unlabeled ligand. The concurrent reference compound (control) employed in each assay is listed in Table 9, “Reference Compound Data,” along with the commercial supplier and catalog number of the compound. […]
Maximum total binding and nonspecific binding were determined each time each assay was run. […]
Where inhibition constants (Ki) are presented, the Ki values were calculated using the equation of Cheng and Prusoff (Cheng, Y., Prusoff, W. H., Biochem. Pharmacol. […], 1973) using the observed IC50 of the tested compound, the concentration of radioligand employed in the assay, and the historical values for the Kd of the ligand (obtained experimentally). Where presented, the Hill Coefficient (nH), defining the scope of the competitive binding curve, was calculated using GraphPad Prism. […] Where IC50, Ki, and/or Hill Slope data is presented without Standard Error of the Mean (SEM), data are insufficient to be quantitative, and the values presented (Ki, IC50, nH) should be interpreted with caution. […]

[4] = tested on: DNBS-induced distal colitis; assay: Inflammation, Inflammatory Bowel Disease (DNBS distal colitis); type: in vivo, rat; conditions: PO, Peptide 30 mg/kg × 7, Sulfasalazine 300 mg/kg × 7
Protocol: as §1
Groups of 3 Sprague-Dawley derived male rats weighing 150±20 gms and fasted for 24 hours were used. Distal colitis was induced by intra-colonic instillation of DNBS (2,4-dinitrobenzene sulfonic acid, 30 mg in 0.5 ml ethanol 30%) after which air (2 ml) was gently injected through the cannula to ensure that the solution remains in the colon. Test substance was administered PO (30 mg/kg) at 24 and 2 hours before DNBS instillation. Then, the animals received test compound every 24 hours for 5 consecutive days. The control group was given vehicle alone as compound dosing pattern. The animals were sacrificed 24 hours after the final dose of test compound administration and each colon was removed and weighed. Colon-to-body weight ratio was obtained from the percentage of the comparison between the animal colon weight and body weight on the 8th day. A 30 percent or more (±30%) reduction in colon-to-body weight ratio relative to the vehicle treated control group was considered significant.

T1 sequence (Q9JI35 whole entry): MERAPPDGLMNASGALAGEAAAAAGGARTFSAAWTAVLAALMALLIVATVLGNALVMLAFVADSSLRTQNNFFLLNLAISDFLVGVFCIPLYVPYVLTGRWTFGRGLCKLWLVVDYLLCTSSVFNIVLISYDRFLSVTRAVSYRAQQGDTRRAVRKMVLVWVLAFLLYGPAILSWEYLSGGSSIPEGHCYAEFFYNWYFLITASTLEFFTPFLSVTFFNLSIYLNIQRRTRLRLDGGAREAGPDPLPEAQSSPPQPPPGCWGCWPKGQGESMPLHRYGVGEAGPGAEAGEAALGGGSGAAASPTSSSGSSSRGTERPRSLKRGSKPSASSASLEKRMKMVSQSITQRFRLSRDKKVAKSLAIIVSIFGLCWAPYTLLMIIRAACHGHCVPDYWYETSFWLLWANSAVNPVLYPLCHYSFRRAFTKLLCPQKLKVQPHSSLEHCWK
T2 sequence (Q9QYN8 whole entry): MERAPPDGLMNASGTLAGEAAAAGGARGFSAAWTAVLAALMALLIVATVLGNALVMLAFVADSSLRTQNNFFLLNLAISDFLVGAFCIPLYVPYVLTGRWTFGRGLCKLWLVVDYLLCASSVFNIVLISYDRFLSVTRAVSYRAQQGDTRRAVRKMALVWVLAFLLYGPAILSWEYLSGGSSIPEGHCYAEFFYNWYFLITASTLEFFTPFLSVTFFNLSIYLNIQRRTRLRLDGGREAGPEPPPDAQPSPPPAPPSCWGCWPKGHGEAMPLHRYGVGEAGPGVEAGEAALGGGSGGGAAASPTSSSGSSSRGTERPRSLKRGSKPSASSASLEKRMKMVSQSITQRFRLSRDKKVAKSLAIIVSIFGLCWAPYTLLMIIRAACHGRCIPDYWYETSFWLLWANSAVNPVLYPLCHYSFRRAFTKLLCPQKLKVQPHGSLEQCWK

Molecule: O=P1(N(CCCl)CCCl)NCCCO1 (centres unmarked) [Cyclophosphamide, Cyclophosphamide Monohydrate]
- % INH. ([1]; decrease of net ear thickness relative to vehicle control): 51%
- Thickness Net, X (group mean) ([1]; group mean): 13.4 × 0.1 mm
- Thickness Net ([1]; individual mouse, R. Ear minus L. Ear, Monohydrate): 16 × 0.1 mm and 10 × 0.1 mm and 14 × 0.1 mm and 7 × 0.1 mm and 20 × 0.1 mm
- Thickness R. Ear ([1]; individual mouse, challenged right ear, 24 hours after oxazolone challenge, Monohydrate): 38 × 0.1 mm and 26 × 0.1 mm and 32 × 0.1 mm and 23 × 0.1 mm and 40 × 0.1 mm
- Thickness L. Ear ([1]; individual mouse, left ear, Monohydrate): 22 × 0.1 mm and 16 × 0.1 mm (2×) and 18 × 0.1 mm and 20 × 0.1 mm

Molecule: LEU-PRO-PRO-SER-ARG [synthetic peptide (crude 60%)]
- % tumor inhibition (Sarcoma 180 tumor; I.P. injections or gavage on days 1-5, 6 mice): 58.6%
- Mean tumor wt. gain, gm (Sarcoma 180 tumor; net tumor weight, I.P. injections or gavage on days 1-5, 6 mice): 1.45 gm

Molecule: C[C@@H](N)Cc1c[nH]cn1 [R (α)-Methylhistamine, R-α-Methyl histamine, reference compound]
- Inc. of TP X ± SEM ([2]; group mean, N=3): 11.3 ± 7.2 cm H2O
- Inc. of TP Ind. ([2]; individual guinea pig, tracheal pressure after ovalbumin 50 μg/kg IV): 8.5 cm H2O and 25.0 cm H2O and 0.5 cm H2O
- % INH. ([2]; inhibition of induced bronchoconstriction relative to vehicle): 61.6%
- Agonism, Ave. (histamine H3 receptor; average of two preparations): 100%
- Agonism (histamine H3 receptor; individual preparation): 100%

Molecule: Cc1nnc2n1-c1sc(CCC(=O)N3CCOCC3)cc1C(c1ccccc1Cl)=NC2 [WEB-2086, reference compound]
- % Protection (PAF-induced mortality; PO one hour before PAF-acether 100 μg/kg IV): 60%
- No. of Survival (PAF-induced mortality; of 5 mice, one hour after PAF-acether 100 μg/kg IV, PO one hour before): 3

Molecule: CCCCC1C(=O)N(c2ccccc2)N(c2ccccc2)C1=O [Phenylbutazone]
- anti-inflammatory response (percent inhibition) [3]: 112.2%

Molecule: S=C(NC1CCCCC1)N1CCC(c2cnc[nH]2)CC1 [Thioperamide]
- Agonism, Ave. (histamine H3 receptor; average of two preparations): 0%
- Antagonism, Ave. (histamine H3 receptor; average of two preparations): 93%
- Antagonism (histamine H3 receptor; individual preparation, reduction of 0.3 μM R(α)-methylhistamine-induced relaxation): 90% and 96%
- Agonism (histamine H3 receptor; individual preparation): 0%

Molecule: CNCCc1cnc[nH]1 [NAMH]
- pIC50 (Histamine H3; read-out: ^1IC, (IC50 of reference compound)): 8.54
- pKi (Histamine H3; read-out: ^1K1 (Ki of reference ligand)): 9.12

Molecule: C[C@]12CCC(=O)C=C1CC[C@@H]1[C@@H]2[C@@H](O)C[C@@]2(C)[C@H]1CC[C@]2(O)C(=O)CO [hydrocortisone]
- anti-inflammatory response (percent inhibition) [3]: 132.6%

Molecule: O=C(O)c1cc(/N=N/c2ccc(S(=O)(=O)Nc3ccccn3)cc2)ccc1O [Sulfasalazine]
- Ratio Net ([4]; group mean minus blank-control): 0.181%
- Ratio Ind., X (group mean) ([4]; group mean): 0.551%
- Ratio Ind. (colon-to-body weight ratio) ([4]; individual rat, Colon (g)/8th B.W. × 100%): 0.496% and 0.508% and 0.650%
- % INH. ([4]; reduction in colon-to-body weight ratio relative to vehicle control): 49%
